# Patent US8946215B2, “Hydroxy-substituted imidazo[1,2-a]pyridinecarboxamides and their use” (Bayer Pharma Aktiengesellschaft, priority 2012, dated 2015)
# Counter-ions that a name gives are not always drawn.
# Molecular target: T1, recombinant guanylate cyclase reporter cell line (Rattus norvegicus, UniProt P19686+P20595)
# T1 construct: expressed in transfected cells
# T1 sequence (P20595 1-619): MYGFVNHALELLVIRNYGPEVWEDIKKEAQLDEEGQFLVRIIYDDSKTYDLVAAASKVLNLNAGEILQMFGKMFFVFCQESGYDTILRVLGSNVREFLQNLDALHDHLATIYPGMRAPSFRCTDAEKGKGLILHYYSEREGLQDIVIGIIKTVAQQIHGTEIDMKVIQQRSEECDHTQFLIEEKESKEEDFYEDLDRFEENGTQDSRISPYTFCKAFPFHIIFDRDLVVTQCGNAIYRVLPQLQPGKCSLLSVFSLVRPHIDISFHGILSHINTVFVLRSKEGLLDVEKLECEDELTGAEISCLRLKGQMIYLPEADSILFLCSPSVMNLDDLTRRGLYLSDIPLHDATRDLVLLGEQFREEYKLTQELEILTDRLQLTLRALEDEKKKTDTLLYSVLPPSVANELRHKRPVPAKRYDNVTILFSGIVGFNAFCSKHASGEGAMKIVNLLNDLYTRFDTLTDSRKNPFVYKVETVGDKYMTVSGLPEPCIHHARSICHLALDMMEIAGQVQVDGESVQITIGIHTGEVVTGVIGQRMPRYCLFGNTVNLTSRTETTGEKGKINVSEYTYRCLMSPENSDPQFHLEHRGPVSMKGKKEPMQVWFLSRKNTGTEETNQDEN
# T1 sequence (P19686 1-690): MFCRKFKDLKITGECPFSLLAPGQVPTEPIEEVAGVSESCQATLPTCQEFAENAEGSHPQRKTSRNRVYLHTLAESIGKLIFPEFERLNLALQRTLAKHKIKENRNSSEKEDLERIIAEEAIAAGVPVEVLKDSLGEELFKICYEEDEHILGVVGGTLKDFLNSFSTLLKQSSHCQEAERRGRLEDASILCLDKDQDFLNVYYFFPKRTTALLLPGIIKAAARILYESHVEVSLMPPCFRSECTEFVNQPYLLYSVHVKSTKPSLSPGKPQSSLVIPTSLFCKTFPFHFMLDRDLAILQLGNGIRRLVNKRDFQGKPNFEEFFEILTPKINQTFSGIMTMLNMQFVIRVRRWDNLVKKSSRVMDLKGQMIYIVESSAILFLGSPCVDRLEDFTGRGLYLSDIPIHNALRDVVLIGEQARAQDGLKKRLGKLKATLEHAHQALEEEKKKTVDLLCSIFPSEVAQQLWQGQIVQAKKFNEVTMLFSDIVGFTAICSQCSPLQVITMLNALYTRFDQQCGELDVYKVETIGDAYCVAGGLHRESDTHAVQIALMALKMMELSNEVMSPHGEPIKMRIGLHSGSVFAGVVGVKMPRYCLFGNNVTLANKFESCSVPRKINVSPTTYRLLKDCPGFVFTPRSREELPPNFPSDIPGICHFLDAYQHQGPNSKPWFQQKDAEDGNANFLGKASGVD
# Assay: Action on recombinant guanylate cyclase reporter cell line
# Type: cell-based
# Conditions: in some cases mean values obtained from individual determinations
# Summary of the method: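 Cell-based reporter assay with recombinant guanylate cyclase expressed in a reporter cell line, per a published method. Activity reported as minimal effective concentration (MEC), in some cases as the mean of individual determinations.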
row,MEC (minimal effective concentration) [µM],Compound
1,0.3,Cc1nc2c(OCc3c(F)cccc3F)cccn2c1C(=O)N[C@@H](CO)Cc1ccccc1 [Example 38]
2,0.03,"Cc1nc2c(OCc3c(F)cccc3F)cccn2c1C(=O)N[C@@H](CO)CC(C)C [Example 39, 8-[(2,6-Difluorobenzyl)oxy]-N-[(2R)-1-hydroxy-4-methylpentan-2-yl]-2-methylimidazo[1,2-a]-pyridine-3-carboxamide]"
3,0.1,"Cc1nc2c(OCc3c(F)cccc3F)cccn2c1C(=O)N[C@H]1c2ccccc2C[C@H]1O [Example 40, 8-[(2,6-difluorobenzyl)oxy]-N-[(1S,2R)-2-hydroxy-2,3-dihydro-1H-inden-1-yl]-2-methylimidazo[1,2-a]pyridine-3-carboxamide]"
4,3.0,"Cc1nc2c(OCc3c(F)cccc3F)cccn2c1C(=O)NCC(C)(C)CO [Example 41, 8-[(2,6-difluorobenzyl)oxy]-N-(3-hydroxy-2,2-dimethylpropyl)-2-methylimidazo[1,2-a]-pyridine-3-carboxamide]"
5,0.16,"CC[C@H](CO)NC(=O)c1c(C)nc2c(OCc3c(F)cccc3F)cccn12 [Example 43, 8-[(2,6-Difluorobenzyl)oxy]-N-[(2R)-1-hydroxybutan-2-yl]-2-methylimidazo[1,2-a]pyridine-3-carboxamide]"
6,0.3,"CC[C@H](CO)NC(=O)c1c(C)nc2c(OCc3cccc(F)c3F)cccn12 [Example 44, 8-[(2,3-difluorobenzyl)oxy]-N-[(2R)-1-hydroxybutan-2-yl]-2-methylimidazo[1,2-a]-pyridine-3-carboxamide]"
7,0.65,"CC[C@H](CO)NC(=O)c1c(C)nc2c(OCc3cccc(Cl)c3Cl)cccn12 [Example 45, 8-[(2,3-dichlorobenzyl)oxy]-N-[(2R)-1-hydroxybutan-2-yl]-2-methylimidazo[1,2-a]-pyridine-3-carboxamide]"
8,3.0,"Cc1nc2c(OCc3ccccc3)cccn2c1C(=O)N[C@@H](C)CO [Example 46, 8-(Benzyloxy)-N-[(2S)-1-hydroxypropan-2-yl]-2-methylimidazo[1,2-a]pyridine-3-carboxamide]"
9,0.3,"Cc1nc2c(OCc3cccc(Cl)c3Cl)cccn2c1C(=O)NCCC1(O)CCCC1 [Example 47, 8-[(2,3-dichlorobenzyl)oxy]-N-[2-(1-hydroxycyclopentyl)ethyl]-2-methylimidazo[1,2-a]-pyridine-3-carboxamide]"
10,1.0,"Cc1nc2c(OCc3ccccc3)cccn2c1C(=O)NCCC1(O)CCCC1 [Example 48, 8-(benzyloxy)-N-[2-(1-hydroxycyclopentyl)ethyl]-2-methylimidazo[1,2-a]pyridine-3-carboxamide]"
11,2.0,"Cc1nc2c(OCc3cccc(Cl)c3Cl)cccn2c1C(=O)NC(CO)CO [Example 49, 8-[(2,3-dichlorobenzyl)oxy]-N-(1,3-dihydroxypropan-2-yl)-2-methylimidazo[1,2-a]-pyridine-3-carboxamide]"
12,5.5,"Cc1nc2c(OCc3ccccc3F)cccn2c1C(=O)NC(CO)CO [Example 51, N-(1,3-dihydroxypropan-2-yl)-8-[(2-fluorobenzyl)oxy]-2-methylimidazo[1,2-a]pyridine-3-carboxamide]"
13,10,"Cc1cccc(COc2cccn3c(C(=O)NC(CO)CO)c(C)nc23)c1Cl [Example 52, 8-[(2-chloro-3-methylbenzyl)oxy]-N-(1,3-dihydroxypropan-2-yl)-2-methylimidazo[1,2-a]-pyridine-3-carboxamide]"
14,10,"Cc1nc2c(OCc3c(Cl)cccc3Cl)cccn2c1C(=O)NC(CO)CO [Example 53, 8-[(2,6-dichlorobenzyl)oxy]-N-(1,3-dihydroxypropan-2-yl)-2-methylimidazo[1,2-a]-pyridine-3-carboxamide]"
15,0.1,"CCc1nc2c(OCC3CCCCC3)cccn2c1C(=O)N[C@H](C)CO [Example 55, 8-(Cyclohexylmethoxy)-2-ethyl-N-[(2R)-1-hydroxypropan-2-yl]imidazo[1,2-a]pyridine-3-carboxamide formic acid salt]"
16,1.0,"C[C@@H](CO)NC(=O)c1c(C(F)(F)F)nc2c(OCC3CCCCC3)cccn12 [Example 56, 8-(cyclohexylmethoxy)-N-[(2S)-1-hydroxypropan-2-yl]-2-(trifluoromethyl)imidazo[1,2-a]pyridine-3-carboxamide]"
17,1.0,"CCCc1nc2c(OCC3CCCCC3)cccn2c1C(=O)N[C@@H](C)CO [Example 57, 8-(cyclohexylmethoxy)-N-[(2S)-1-hydroxypropan-2-yl]-2-propylimidazo[1,2-a]-pyridine-3-carboxamide]"
18,3.0,"CCc1nc2c(OCC3CCC3)cccn2c1C(=O)N[C@@H](C)CO [Example 58, 8-(cyclobutylmethoxy)-2-ethyl-N-[(2S)-1-hydroxypropan-2-yl]imidazo[1,2-a]pyridine-3-carboxamide formic acid salt]"
19,3.0,"C[C@@H](CO)NC(=O)c1cnc2c(OCC3CCCCC3)cccn12 [Example 59, 8-(cyclohexylmethoxy)-N-[(2S)-1-hydroxypropan-2-yl]imidazo[1,2-a]pyridine-3-carboxamide]"
20,0.1,"CCCC[C@H](CO)NC(=O)c1c(C)nc2c(OCc3c(F)cccc3F)cc(CC)cn12 [Example 60, 8-[(2,6-difluorobenzyl)oxy]-6-ethyl-N-[(2R)-1-hydroxyhexan-2-yl]-2-methylimidazo[1,2-a]pyridine-3-carboxamide]"
21,1.0,"CCCC[C@H](CO)NC(=O)c1c(C)nc2c(OCc3c(F)cccc3F)cc(C3CC3)cn12 [Example 61, 6-cyclopropyl-8-[(2,6-difluorobenzyl)oxy]-N-[(2R)-1-hydroxyhexan-2-yl]-2-methylimidazo[1,2-a]pyridine-3-carboxamide]"
22,0.3,"CCCC[C@H](CO)NC(=O)c1cnc2c(OCc3c(F)cccc3F)cccn12 [Example 62, 8-[(2,6-difluorobenzyl)oxy]-N-[(2R)-1-hydroxyhexan-2-yl]imidazo[1,2-a]pyridine-3-carboxamide]"
23,3.0,"CCCC[C@H](CO)NC(=O)c1c(C)nc2c(OCc3c(F)cccc3F)cc(N3CCOCC3)cn12 [Example 63, 8-[(2,6-difluorobenzyl)oxy]-N-[(2R)-1-hydroxyhexan-2-yl]-2-methyl-6-(morpholin-4-yl)imidazo[1,2-a]pyridine-3-carboxamide]"
24,3.0,"CCCC[C@H](CO)NC(=O)c1c(C)nc2c(OCc3c(F)cccc3F)cc(N3CCCC3)cn12 [Example 64, 8-[(2,6-difluorobenzyl)oxy]-N-[(2R)-1-hydroxyhexan-2-yl]-2-methyl-6-(pyrrolidin-1-yl)imidazo[1,2-a]pyridine-3-carboxamide]"
25,0.03,"CCCC[C@H](CO)NC(=O)c1c(C)nc2c(OCc3c(F)cccc3F)cc(Br)cn12 [Example 65, 6-bromo-8-[(2,6-difluorobenzyl)oxy]-N-[(2R)-1-hydroxyhexan-2-yl]-2-methylimidazo[1,2-a]pyridine-3-carboxamide]"
26,0.03,"CCC[C@H](CO)NC(=O)c1c(C)nc2c(OCC3CCCCC3)cccn12 [Example 67, 8-(cyclohexylmethoxy)-N-[(2R)-1-hydroxypentan-2-yl]-2-methylimidazo[1,2-a]pyridine-3-carboxamide]"
27,0.03,"Cc1nc2c(OCC3CCCCC3)cccn2c1C(=O)NC[C@H](O)CO [Example 68, 8-(cyclohexylmethoxy)-N-[(2S)-2,3-dihydroxypropyl]-2-methylimidazo[1,2-a]pyridine-3-carboxamide]"
28,0.1,"CC[C@H](CO)NC(=O)c1c(C)nc2c(OCC3CCCCC3)cccn12 [Example 72, 8-(cyclohexylmethoxy)-N-[(2R)-1-hydroxybutan-2-yl]-2-methylimidazo[1,2-a]pyridine-3-carboxamide]"
